From patent US7365069B2, “Pyrimidone derivatives” (Bexel Pharmaceuticals Inc., priority 2002, dated 2008)

Assays:
Male Wistar rats = assay: Rat carrageenan paw edema test; assay type: in vivo; conditions: 5 mg/kg body weight, oral, paw volume 3 hours after carrageenan, read-out: Rat Paw Edema model % inhibition
Method: Rat Carrageenan Paw Edema Test
The carrageenan paw edema test is performed as described by Winter et al (Proc. Soc. Exp. Biol. Med, 111, 544, 1962). Male Wistar rats are selected and the body weights are equivalent within each group. The rats are fasted for eighteen hours with free access to water. The rats are dosed orally with the test compound suspended in vehicle containing 0.5% methylcellulose. The control rats are administered the vehicle alone. After an hour, the rats are injected with 0.1 ml of 1% Carrageenan solution in 0.9% saline into the sub-plantar surface of the right hind paw. Paw volume is measured using water plethysmograph before and after 3 hours of carrageenan injection. The average of foot swelling in drug treated animals is compared with that of control animals. Anti-inflammatory activity is expressed as the percentage inhibition of edema compared with control group [Arzneim-Forsch/Drug Res., 43(I), 1, 44-50,1993; Ottemess and Bliven, Laboratory Models for Testing NSAIDs, In Non-Steroidal Anti-Inflammatory Drugs, (J. Lombardino, ed. 1985)]. In order to evaluate their role on the ulcer formation, the animals are sacrificed and the stomach is taken out and flushed with 1% formalin. The stomach is opened along the greater curvature. The haemorrhagic puncta and sulci are identified microscopically and images are captured. The stomach lesions are calculated.

IL-6 = IL-6 production in LPS-stimulated human whole blood; assay type: cell-based; conditions: LPS 4 h
Method: This assay determines the effect of test compounds on the production of IL-6 from human whole blood. Compounds are tested for their ability to downregulate the production of IL-6 in activated whole blood. The test compounds are pre-incubated for 15 minutes at 37° C. and then stimulated with Lipopolysaccharide (Salmonella abortus equi, 1 μg/ml) for 4 h at 37° C. in 5% CO2. The levels of Interleukin-6 are estimated using Enzyme linked Immunosorbent assay performed in a 96 well format as per the procedure of the manufacturer (Cayman Chemical, Ann Arbor, USA).

TNF-α = TNF-α production in LPS-stimulated human whole blood; assay type: cell-based; conditions: LPS 4 h
Method: Tumor Necrosis Factor Alpha (TNF-α)
This assay determines the effect of test compounds on the production of TNF-α in human whole blood. TNF-α assay is carried out as described by Armin hatzelmann and Christian Schudt (J Pharm Exp Ther 297, 261, 2001). Compounds are tested for their ability to inhibit the activity of TNF-α in human whole blood. The test compounds are pre-incubated for 15 minutes at 37° C. and then stimulated with Lipopolysaccharide (Salmonella abortus equi, 1 μg/ml) for 4 h at 37° C. in 5% CO2. The levels of TNF-α are estimated using Enzyme linked Immunosorbent assay performed in a 96 well format as per the procedure of the manufacturer (Cayman Chemical, Ann Arbor, USA).

COX-2 = target: T1, COX-2 (Homo sapiens, UniProt P35354); assay: Human whole blood assay, COX-2 inhibition (PGE2 ELISA after LPS); assay type: cell-based; conditions: LPS 24 h
T1 construct: incubation of human blood with lipopolysaccharide (LPS), which induces COX-2 production in the blood; endogenous in cells; host or cells: fresh human whole blood from volunteers, treated with aspirin and then LPS
T1 sequence (P35354 18-604): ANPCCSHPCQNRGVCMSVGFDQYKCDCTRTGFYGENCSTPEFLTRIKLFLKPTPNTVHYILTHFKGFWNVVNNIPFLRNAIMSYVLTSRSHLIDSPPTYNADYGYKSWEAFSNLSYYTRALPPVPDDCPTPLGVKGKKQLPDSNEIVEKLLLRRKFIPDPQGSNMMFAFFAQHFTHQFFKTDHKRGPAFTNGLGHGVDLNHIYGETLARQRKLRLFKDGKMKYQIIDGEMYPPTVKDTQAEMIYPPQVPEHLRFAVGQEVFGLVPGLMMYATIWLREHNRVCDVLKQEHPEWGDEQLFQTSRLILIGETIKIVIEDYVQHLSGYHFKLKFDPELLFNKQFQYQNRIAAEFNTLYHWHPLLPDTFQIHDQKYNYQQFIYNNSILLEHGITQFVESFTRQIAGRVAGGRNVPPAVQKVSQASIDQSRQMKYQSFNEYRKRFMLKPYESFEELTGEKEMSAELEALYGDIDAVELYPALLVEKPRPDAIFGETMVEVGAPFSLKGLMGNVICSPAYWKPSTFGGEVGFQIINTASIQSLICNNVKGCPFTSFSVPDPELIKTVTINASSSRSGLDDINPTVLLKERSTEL
Method: In Vivo Evaluation of Cyclooxygenase-2 (COX-2) Inhibition Activity
The COX-2 inhibition activities of the compounds illustrated in the examples are determined by the following method.
Human whole blood provides a protein and cell rich milieu appropriate for the study of biochemical efficacy of anti-inflammatory compounds such as selective COX-2 inhibitors. […] This is correlating with the observation that COX-2 inhibitors have no effect on prostaglandin E2 (PGE2) production in normal blood. These inhibitors are active only after incubation of human blood with lipopolysaccharide (LPS), which induces COX-2 production in the blood.
Fresh blood is collected in tubes containing potassium EDTA by vein puncture from make volunteers. The subjects should have no apparent inflammatory conditions and not taken NSAIDs for at least 7 days prior to blood collection. Blood is treated with aspirin in vitro (10 μg/ml, at time zero) to inactivate COX-1, and then with LPS (10 μg/ml) along with test agents or vehicle. The blood is incubated for 24 h at 37° C., after which the tubes are centrifuged, the plasma is separated and stored at −80° C. (J. Pharmacol. Exp. Ther, 271, 1705, 1994; Proc. Natl. Acad. Sci. USA., 96, 7563, 1999). The plasma is assayed for PGE2 using Cayman ELISA kit as per the procedure outlined by the manufacturer (Cayman Chemicals, Ann Arbor, USA).

NCI-H460 = assay: DTP human tumor cell line one-dose prescreen, NCI-H460; assay type: cell-based; conditions: 48 hours, Alamar Blue, test/control, read-out: Percentage growth Lung NCI-H460
Method: (§1) DTP Human Tumor Cell Line Screen
(§2) Methodology of the In Vitro Cancer Screen
(§3) The current assay utilizes a 384 well plate format and fluorescent staining technologies resulting in greater screening capacity for testing of synthetic samples.
(§4) The cell lines of the cancer-screening panel are grown in RPMI 1640 medium containing 5% fetal bovine serum and 2 mM L-glutamine. For a typical screening experiment, cells are inoculated into 96 well microtiter plates in 100 μL. After cell inoculation, the microtiter plates are incubated at 37° C., 5% CO2, 95% air and 100% relative humidity for 24 h prior to addition of experimental drugs. The cells are plated a densities of 5000 cells/well (MCF7), 1000 cells/well (NC1—H460), and 7500 cells/well (SF-268) to allow for varying doubling time of the cell lines. Each plate contains all three cell lines, a series of dilutions of standard agents, total kill wells and appropriate controls. Plates are incubated under standard conditions for 24 hours prior to addition of experimental compounds or extracts.
(§5) Addition of Experimental Agents (Pure Compounds)
(§6) Experimental compounds are solubilized in dimethyl sulfoxide (DMSO) at 400-times the desired maximum test concentration (maximum final DMSO concentration of 0.25%) and stored frozen. Compounds are then diluted with complete media with 0.1% gentamicin sulfate (5 μl of test sample in 100% DMSO is added to 565 μl of complete medium). 20 μl of this solution is then dispensed into test wells containing 50 μl of cell suspension to yield a test concentration of 1.00E-04M.
(§7) Two standard drugs, meaning that their activities against the cell lines are well documented, are tested against each cell line: NSC 19893 (5-FU) and NSC 123127 (Adriamycin).
(§8) After compound addition, plates are incubated at standard conditions for 48 hours, 10 μl/well Alamar Blue is added and the plates are incubated for an additional 4 hours. Fluorescence is measured using an excitation wavelength of 530 nm and an emission wavelength of 590 nm.
(§9) Calculation of Percent Test Cell Growth/Control (Untreated) Cell Growth (T/C)
(§10) Percent growth is calculated on a plate-by-plate basis for test wells relative to control wells. Percent Growth is expressed as the ratio of fluorescence of the test well to the average fluorescence of the control wells x 100.

MCF-7 = assay: DTP human tumor cell line one-dose prescreen, MCF-7; assay type: cell-based; conditions: MCF7, 48 hours, Alamar Blue, test/control, read-out: Percentage growth Breast MCF-7
Method: as §1, §2, §3, §4, §5, §6, §7, §8, §9, §10

SF-268 = assay: DTP human tumor cell line one-dose prescreen, SF-268; assay type: cell-based; conditions: 48 hours, Alamar Blue, test/control, read-out: Percentage growth CNS SF-268
Method: as §1, §2, §3, §4, §5, §6, §7, §8, §9, §10

CSc1nc(-c2ccc(S(C)(=O)=O)cc2)n(-c2ccc(C(C)C)cc2)c(=O)c1C#N [Example 11, 5-cyano-1-(4-isopropylphenyl)-2-[4-(methylsulfonyl)phenyl]-4-(methylthio)-6-oxo-1,6-dihydropyrimidine]
inhibition in vivo at 5 mg/kg (Male Wistar rats): 63.8% | inhibition at 0.25 µM (IL-6): 70.8% | inhibition at 0.25 µM (TNF-α): 63.8% | inhibition at 0.25 µM (COX-2): 31.1% | melting point: 211 to 212 °C

CSc1nc(-c2ccc(S(C)(=O)=O)cc2)n(-c2ccc(C)c(C)c2)c(=O)c1C#N [Example 12, 5-cyano-1-(3,4-dimethylphenyl)-2-[4-(methylsulfonyl)phenyl]-4-(methylthio)-6-oxo-1,6-dihydropyrimidine]
inhibition in vivo at 5 mg/kg (Male Wistar rats): 41.2% | inhibition at 0.25 µM (IL-6): 28.7% | inhibition at 0.25 µM (TNF-α): 27.2% | inhibition at 0.25 µM (COX-2): 36.5% | melting point: 245 to 247 °C

COc1ccc(-n2c(-c3ccc(SC)cc3)nc(SC)c(C#N)c2=O)cc1 [Example 16, 5-cyano-1-(4-methoxyphenyl)-4-(methylthio)-2-[4-(methylthio)phenyl]-6-oxo-1,6-dihydropyrimidine]
activity at 100 µM (NCI-H460): 95% | inhibition at 10 µM (TNF-α): 59.8% | activity at 100 µM (MCF-7): 90% | melting point: 214 to 216 °C

CSc1nc(-c2ccccc2)n(-c2ccc(F)cc2)c(=O)c1C#N [Example 17, 5-cyano-1-(4-fluorophenyl)-4-(methylthio)-2-phenyl-6-oxo-1,6-dihydropyrimidine]
inhibition at 0.25 µM (IL-6): 16.2% | inhibition at 10 µM (TNF-α): 47.4% | inhibition at 0.25 µM (COX-2): 16.2% | melting point: 204 to 205 °C

CSc1ccc(-n2c(-c3cccnc3)nc(SC)c(C#N)c2=O)cc1 [Example 27, 5-cyano-4-(methylthio)-1-[4-(methylthio)phenyl]-6-oxo-2-pyridin-3-yl-1,6-dihydropyrimidine]
activity at 100 µM (NCI-H460): 14% | activity at 100 µM (MCF-7): 23% | melting point: 212 to 215 °C | activity at 100 µM (SF-268): 51%

CSc1ccc(-n2c(-c3ccncc3)nc(SC)c(C#N)c2=O)cc1 [Example 28, 5-cyano-4-(methylthio)-1-[4-(methylthio)phenyl]-6-oxo-2-pyridin-4-yl-1,6-dihydropyrimidine]
activity at 100 µM (NCI-H460): 20% | activity at 100 µM (MCF-7): 48% | melting point: 227 to 229 °C | activity at 100 µM (SF-268): 63%

CSc1nc(-c2ccccn2)n(-c2ccc(F)cc2)c(=O)c1C#N [Example 29, 5-cyano-1-(4-fluorophenyl)-4-(methylthio)-6-oxo-2-pyridin-2-yl-1,6-dihydropyrimidine]
activity at 100 µM (NCI-H460): 23% | activity at 100 µM (MCF-7): 80% | melting point: 221 to 227 °C | activity at 100 µM (SF-268): 92%

CCOC(=O)c1c(SC)nc(-c2ccc(SC)cc2)n(-c2ccc(F)cc2)c1=O [Example 42, ethyl 1-(4-fluorophenyl)-4-(methylthio)-2-[4-(methylthio)phenyl]-6-oxo-1,6-dihydropyrimidine-5-carboxylate]
inhibition at 0.1 µM (IL-6; 0.1 μM): 59.7% | inhibition at 0.1 µM (TNF-α; 0.1 μM): 49.6% | inhibition at 0.1 µM (COX-2; 0.1 μM): 37.6% | melting point: 151 to 155 °C

CCOC(=O)c1c(SC)nc(-c2ccc(F)cc2)n(-c2ccc(SC)cc2)c1=O [Example 43, ethyl 2-(4-fluorophenyl)-4-(methylthio)-1-[4-(methylthio)phenyl]-6-oxo-1,6-dihydropyrimidine-5-carboxylate]
activity at 100 µM (NCI-H460): 79% | inhibition at 0.25 µM (IL-6): 10.4% | inhibition at 1 µM (TNF-α): 36.4% | activity at 100 µM (MCF-7): 68% | inhibition at 1 µM (COX-2): 27.5% | melting point: 166 to 169 °C

CNc1nc(-c2ccc(SC)cc2)n(-c2ccc(C)cc2)c(=O)c1C#N [Example 54, 5-cyano-4-(methylamino)-1-(4-methylphenyl)-2-[4-(methylthio)phenyl]-6-oxo-1,6-dihydropyrimidine]
inhibition at 1 µM (IL-6; 1 μM): 15.5% | inhibition at 1 µM (TNF-α): 15.6% | inhibition at 0.25 µM (COX-2): 72.1% | melting point: 268 to 271 °C

CNc1nc(-c2ccc(SC)cc2)n(-c2ccc(C)c(C)c2)c(=O)c1C#N [Example 55, 5-cyano-1-(3,4-dimethylphenyl)-4-(methylamino)-2-[4-(methylthio)phenyl]-6-oxo-1,6-dihydropyrimidine]
inhibition at 1 µM (TNF-α): 54.4% | inhibition at 1 µM (COX-2): 8.2% | melting point: 199 to 205 °C
